In patent EP0207497A2, “Quinolonecarboxylic acid derivative and process for its preparation” (KYORIN PHARMACEUTICAL CO., LTD., priority 1985, dated 1987) one finds MIC data, which are given here for one compound.

Converted amounts (≈) assume the structure as drawn.

Holding throughout (type): cell-based
In one experiment the test system is P. cepacia GIFU 518. The experiment in a line: Antibacterial spectrum, MIC determination (method of Japan Society of Chemotherapy). Conditions: Burkholderia cepacia, GIFU518; P. cepacia GIFU 518, Gram -, 10^6 cells/ml; read-out: MIC.
For a further experiment, the system named is Pst. micros UPI 5464-1. The experiment is described as above. Conditions: Parvimonas micra, UPI54641; Pst. micros UPI 5464-1, Gram +, 10^6 cells/ml.
In another experiment the test system is E. coli ATCC 10536. Described as above. Conditions: Escherichia coli, ATCC10536; E. coli ATCC 10536, Gram -, 10^6 cells/ml; read-out: MIC.
The subject of experiment [1] is Salmonella enteritidis IID 604. The experiment is described as above. Conditions: Salmonella enterica; Salmonella enteritidis IID 604, Gram -, 10^6 cells/ml; read-out: MIC.
Experiment [2] relates to Morganella morganii IID 602. The experiment is described as above. Conditions: IID602; Morganella morganii IID 602, Gram -, 10^6 cells/ml.
Experiment [3] concerns Klebsiella pneumoniae KY(GN)6445. The experiment is described as above. The note with it: Klebsiella pneumoniae KY(GN)6445, Gram -, 10^6 cells/ml; read-out: MIC.
The next experiment concerns F. varium KYA 8501. The experiment is described as above. The note with it: Fusobacterium varium, KYA8501; F. varium KYA 8501, Gram -, 10^6 cells/ml.
A further experiment has as its system P. aeruginosa IFO 12689. Described as above. The note with it: Pseudomonas aeruginosa, IFO12689; P. aeruginosa IFO 12689, Gram -, 10^6 cells/ml.
Experiment [4] has as its system Fusobacterium mortiferum 4249. The description is as above. Conditions: Fusobacterium mortiferum 4249, Gram -, 10^6 cells/ml; read-out: MIC.
For a further experiment, the system named is C. perfringens KYA 13123. The experiment in a line: microbe, parasite or virus in culture. The note with it: Clostridium perfringens, KYA13123.
The next experiment concerns B. fragilis 0558. Nature of the experiment: Antibacterial spectrum, MIC determination (method of Japan Society of Chemotherapy). The note with it: Bacteroides fragilis; B. fragilis 0558, Gram -, 10^6 cells/ml; read-out: MIC.
A further experiment deals with K. pneumoniae 1-220S. The experiment is described as above. The note with it: Klebsiella pneumoniae, 1220S; K. pneumoniae 1-220S, Gram -, 10^6 cells/ml; read-out: MIC.
The subject of another experiment is S. aureus Smith. The experiment is described as above. The note with it: Staphylococcus aureus; S. aureus Smith, Gram +, 10^6 cells/ml; read-out: MIC.
For experiment [5], the system named is Alcaligenes faecalis 0114002. The experiment is described as above. The note with it: Alcaligenes faecalis 0114002, Gram -, 10^6 cells/ml.
The subject of experiment [6] is Bacteroides fragilis GM 7000. The description is as above. The note with it: GM7000; Bacteroides fragilis GM 7000, Gram -, 10^6 cells/ml; read-out: MIC.
Experiment [7] deals with Eubacterium lentum GAI 5242. The description is as above. The note with it: Eggerthella lenta, GAI5242; Eubacterium lentum GAI 5242, Gram +, 10^6 cells/ml.
Another experiment relates to B. vulgatus KYA 29327. Described as above. The note with it: Phocaeicola vulgatus, KYA29327; B. vulgatus KYA 29327, Gram -, 10^6 cells/ml; read-out: MIC.

As for `NC1CCN(c2c(F)cc3c(=O)c(C(=O)O)cn(C4CC4)c3c2Br)C1` (centres unmarked) [Exp. 1, 7-(3-Amino-1-pyrrolidinyl)-8-bromo-1-cyclopropyl-6-fluoro-1,4-dihydro-4-oxo-3-quinolinecarboxylic acid], the MIC in the experiment with P. cepacia GIFU 518 worked out at 0.39 µg/mL (≈ 0.951 µM); against Pst. micros UPI 5464-1, 0.1 µg/mL (≈ 0.244 µM); in the experiment on E. coli ATCC 10536 it was 0.0125 µg/mL (≈ 0.0305 µM); in experiment [1] it was 0.025 µg/mL (≈ 0.0609 µM); in experiment [2], 0.05 µg/mL (≈ 0.122 µM); in experiment [3] it was 0.0125 µg/mL (≈ 0.0305 µM). The MIC came to 0.78 µg/mL (≈ 1.9 µM) against F. varium KYA 8501; 0.39 µg/mL (≈ 0.951 µM) against P. aeruginosa IFO 12689; 0.2 µg/mL (≈ 0.488 µM) in experiment [4]; 0.2 µg/mL (≈ 0.488 µM) against C. perfringens KYA 13123; 0.1 µg/mL (≈ 0.244 µM) with B. fragilis 0558; 0.025 µg/mL (≈ 0.0609 µM) in the experiment with K. pneumoniae 1-220S. Also, the MIC in the experiment with S. aureus Smith turned out to be 0.05 µg/mL (≈ 0.122 µM); in experiment [5], 0.1 µg/mL (≈ 0.244 µM); in experiment [6], 0.1 µg/mL (≈ 0.244 µM); in experiment [7], 0.1 µg/mL (≈ 0.244 µM); with B. vulgatus KYA 29327, 0.2 µg/mL (≈ 0.488 µM).
